A short description of experiment [1]: cells. To be noted: Homo sapiens, HL-60, 48 h.
Description: Cytotoxicity against human HL60 cells after 48 hrs by MTT assay
For experiment [2], the target named is T1, Prolyl endopeptidase (Homo sapiens, UniProt P48147).
T1 sequence (P48147 whole entry): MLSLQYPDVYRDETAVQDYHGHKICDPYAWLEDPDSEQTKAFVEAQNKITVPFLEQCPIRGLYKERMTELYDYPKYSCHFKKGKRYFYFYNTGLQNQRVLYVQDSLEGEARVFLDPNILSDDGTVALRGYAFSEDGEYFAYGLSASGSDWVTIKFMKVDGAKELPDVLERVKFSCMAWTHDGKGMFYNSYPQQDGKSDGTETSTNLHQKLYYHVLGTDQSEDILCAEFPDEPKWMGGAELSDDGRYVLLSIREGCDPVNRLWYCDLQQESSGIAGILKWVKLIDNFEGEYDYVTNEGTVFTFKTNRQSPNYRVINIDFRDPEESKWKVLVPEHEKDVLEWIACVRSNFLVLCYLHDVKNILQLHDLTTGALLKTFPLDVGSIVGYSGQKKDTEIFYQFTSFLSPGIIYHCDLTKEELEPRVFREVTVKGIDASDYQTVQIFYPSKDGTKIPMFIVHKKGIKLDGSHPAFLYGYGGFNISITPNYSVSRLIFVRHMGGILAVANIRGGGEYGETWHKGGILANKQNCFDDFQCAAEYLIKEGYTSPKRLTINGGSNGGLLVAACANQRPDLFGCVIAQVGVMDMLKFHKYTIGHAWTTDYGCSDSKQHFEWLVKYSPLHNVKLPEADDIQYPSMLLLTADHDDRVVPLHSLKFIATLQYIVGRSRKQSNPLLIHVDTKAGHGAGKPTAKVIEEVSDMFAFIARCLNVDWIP
The experiment is described as follows: Inhibition of prolyl oligopeptidase (unknown origin).

The values below come from ChEMBL document CHEMBL3351856, “Structural revision of kynapcin-12 by total synthesis, and inhibitory activities against prolyl oligopeptidase and cancer cells” (Bioorg Med Chem Lett, 2014).

Usually IC50 stands for the concentration that inhibits the measured activity by half. Low readings indicate greater potency, high ones weaker potency.

Structures are written as SMILES. Bridge positions count the residues as written; N and C are the ends. Peptide text beside a SMILES is read from it.

Take `CC(C)(C)[Si](C)(C)Oc1ccc(C2=C3OCOC3=C(c3ccc(O[Si](C)(C)C(C)(C)C)cc3)C(=O)C2=O)cc1`: the values for the IC50 in experiment [1] and in experiment [2] were 2.8 µM and 15.1 µM, respectively. In experiment [1], `CC(=O)Oc1c(OC(C)=O)c(-c2ccc(O[Si](C)(C)C(C)(C)C)cc2)c2c(c1-c1ccc(O[Si](C)(C)C(C)(C)C)cc1)OCO2` displayed an IC50 of 2.9 µM. Consider `COCC1=C(c2ccc(O[Si](C)(C)C(C)(C)C)cc2)C(=O)C(COC)=C(c2ccc(O[Si](C)(C)C(C)(C)C)cc2)C1=O`, for which the half-maximal inhibitory concentration (IC50) in experiment [1] stood at 6.5 µM. In the case of `CC(=O)Oc1c(OC(C)=O)c(-c2ccc(O[Si](C)(C)C(C)(C)C)cc2)c2c(c1-c1ccc(O[Si](C)(C)C(C)(C)C)cc1)OC(OC(C)=O)O2`, the results for the IC50 in experiment [1] and in experiment [2] were 4.2 µM and 3.5 µM, respectively. In the case of `CC(=O)OC1=C(c2ccc(O)cc2)C(=O)C(OC(C)=O)=C(c2ccc(O)cc2)C1=O`, in experiment [1], the half-maximal inhibitory concentration (IC50) was > 20 µM. `CC(=O)Oc1c(OC(C)=O)c(-c2ccc(O)cc2)c(O)c(O)c1-c1ccc(O)cc1`: the IC50 in experiment [1] is > 20 µM.

As for `COCc1c(OC(C)=O)c(-c2ccc(O[Si](C)(C)C(C)(C)C)cc2)c(COC)c(OC(C)=O)c1-c1ccc(O[Si](C)(C)C(C)(C)C)cc1`, the IC50 was 19.1 µM in experiment [1] and > 50 µM in experiment [2]. On to `CC[C@H](C)[C@H](NC(=O)[C@H](Cc1ccccc1)NC(=O)[C@@H](NC(=O)[C@H](Cc1cnc[nH]1)NC(=O)CNC(=O)CNC(=O)[C@H](Cc1ccccc1)NC(=O)[C@H](CC(C)C)NC(=O)[C@@H]1CC(=O)NCC(=O)N[C@@H](Cc2ccc(O)cc2)C(=O)N2CCC[C@H]2C(=O)N[C@@H](Cc2c[nH]c3ccccc23)C(=O)N[C@@H](Cc2c[nH]c3ccccc23)C(=O)N[C@@H](CC(=O)O)C(=O)N[C@@H](Cc2ccc(O)cc2)C(=O)N[C@@H](CCCNC(=N)N)C(=O)N1)[C@@H](C)O)C(=O)N[C@@H](CO)C(=O)N1CCC[C@H]1C(=O)O` (GYPWWDYRDLFGGHTFISP-OH; lactam N-9), for which the IC50 in experiment [2] was 1.4 µM. Consider `COCc1c(COC)c(-c2ccc(O[Si](C)(C)C(C)(C)C)cc2)c(COC)c(COC)c1-c1ccc(O[Si](C)(C)C(C)(C)C)cc1`, for which the IC50 was 14.4 µM in experiment [1] and > 50 µM in experiment [2].
